Results: article PMC9851200, “Multiparameter phenotypic screening for endogenous TFEB and TFE3 translocation identifies novel chemical series modulating lysosome function” (Autophagy, 2022)
Where two headings read alike, the source gives them in different places.

Experiments:
Type in all cases: binding
[1] = target: T1, kinases (KINOMEscan panel) (Homo sapiens, UniProt Q6P3R8); conditions: kinase NEK5; NEW KINOMEscan
T1 sequence (Q6P3R8 1-708): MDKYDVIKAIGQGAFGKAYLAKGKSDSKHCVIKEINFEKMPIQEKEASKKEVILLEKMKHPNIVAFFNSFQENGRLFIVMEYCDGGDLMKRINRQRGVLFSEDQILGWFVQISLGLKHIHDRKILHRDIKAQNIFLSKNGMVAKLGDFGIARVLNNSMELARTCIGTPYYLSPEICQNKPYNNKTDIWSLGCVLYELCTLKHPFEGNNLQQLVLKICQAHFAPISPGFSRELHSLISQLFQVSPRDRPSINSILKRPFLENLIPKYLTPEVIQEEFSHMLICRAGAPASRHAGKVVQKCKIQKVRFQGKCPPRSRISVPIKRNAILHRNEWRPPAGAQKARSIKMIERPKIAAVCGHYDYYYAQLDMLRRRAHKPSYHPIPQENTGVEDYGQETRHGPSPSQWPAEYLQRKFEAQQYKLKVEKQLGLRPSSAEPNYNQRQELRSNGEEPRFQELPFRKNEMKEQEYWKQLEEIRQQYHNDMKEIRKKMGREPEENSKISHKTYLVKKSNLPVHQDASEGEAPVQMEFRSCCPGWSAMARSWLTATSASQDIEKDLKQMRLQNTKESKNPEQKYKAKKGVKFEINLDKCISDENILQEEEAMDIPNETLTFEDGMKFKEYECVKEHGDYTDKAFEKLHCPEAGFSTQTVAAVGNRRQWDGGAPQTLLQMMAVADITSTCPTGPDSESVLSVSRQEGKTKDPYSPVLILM

[2] = target: kinases (KINOMEscan panel) (Homo sapiens, UniProt Q2M2I8); conditions: AAK1; NEW KINOMEscan
Sequence of kinases (KINOMEscan panel) (Homo sapiens, UniProt Q2M2I8) (Q2M2I8 whole entry): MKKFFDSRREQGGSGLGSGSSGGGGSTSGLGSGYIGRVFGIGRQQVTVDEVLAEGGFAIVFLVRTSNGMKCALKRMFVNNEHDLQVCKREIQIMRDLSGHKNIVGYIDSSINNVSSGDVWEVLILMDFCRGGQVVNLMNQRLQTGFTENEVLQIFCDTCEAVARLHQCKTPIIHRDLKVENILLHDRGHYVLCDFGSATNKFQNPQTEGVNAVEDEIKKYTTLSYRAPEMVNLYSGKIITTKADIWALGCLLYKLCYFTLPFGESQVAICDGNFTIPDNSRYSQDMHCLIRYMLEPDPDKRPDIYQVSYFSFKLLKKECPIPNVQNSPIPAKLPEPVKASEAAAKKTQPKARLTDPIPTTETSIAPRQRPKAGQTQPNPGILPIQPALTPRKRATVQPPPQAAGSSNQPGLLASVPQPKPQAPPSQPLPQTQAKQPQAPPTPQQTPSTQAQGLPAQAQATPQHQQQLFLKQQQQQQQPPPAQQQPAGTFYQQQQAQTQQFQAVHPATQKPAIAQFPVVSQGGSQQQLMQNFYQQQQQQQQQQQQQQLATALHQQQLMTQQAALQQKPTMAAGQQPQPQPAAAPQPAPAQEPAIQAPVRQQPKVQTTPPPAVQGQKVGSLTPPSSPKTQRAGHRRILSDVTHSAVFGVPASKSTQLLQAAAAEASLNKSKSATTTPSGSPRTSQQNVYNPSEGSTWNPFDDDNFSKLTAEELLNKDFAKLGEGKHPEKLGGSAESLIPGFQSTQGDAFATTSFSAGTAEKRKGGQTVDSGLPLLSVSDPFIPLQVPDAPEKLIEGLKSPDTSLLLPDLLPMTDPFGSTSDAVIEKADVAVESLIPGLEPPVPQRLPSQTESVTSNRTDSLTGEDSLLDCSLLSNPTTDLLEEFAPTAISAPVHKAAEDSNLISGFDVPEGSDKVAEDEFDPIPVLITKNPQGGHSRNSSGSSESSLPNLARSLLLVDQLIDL

[3] = target: kinases (KINOMEscan panel) (Homo sapiens, UniProt P22455); conditions: NEW KINOMEscan
[4] = target: kinases (KINOMEscan panel) (Homo sapiens, UniProt Q86UE8); conditions: kinase TLK2; NEW KINOMEscan
[5] = target: kinases (KINOMEscan panel) (Homo sapiens, UniProt Q9NQU5); conditions: PAK6; NEW KINOMEscan
[6] = target: kinases (KINOMEscan panel) (Homo sapiens, UniProt Q96J92); conditions: WNK4; NEW KINOMEscan
Sequence of kinases (KINOMEscan panel) (Homo sapiens, UniProt Q96J92) (Q96J92 whole entry): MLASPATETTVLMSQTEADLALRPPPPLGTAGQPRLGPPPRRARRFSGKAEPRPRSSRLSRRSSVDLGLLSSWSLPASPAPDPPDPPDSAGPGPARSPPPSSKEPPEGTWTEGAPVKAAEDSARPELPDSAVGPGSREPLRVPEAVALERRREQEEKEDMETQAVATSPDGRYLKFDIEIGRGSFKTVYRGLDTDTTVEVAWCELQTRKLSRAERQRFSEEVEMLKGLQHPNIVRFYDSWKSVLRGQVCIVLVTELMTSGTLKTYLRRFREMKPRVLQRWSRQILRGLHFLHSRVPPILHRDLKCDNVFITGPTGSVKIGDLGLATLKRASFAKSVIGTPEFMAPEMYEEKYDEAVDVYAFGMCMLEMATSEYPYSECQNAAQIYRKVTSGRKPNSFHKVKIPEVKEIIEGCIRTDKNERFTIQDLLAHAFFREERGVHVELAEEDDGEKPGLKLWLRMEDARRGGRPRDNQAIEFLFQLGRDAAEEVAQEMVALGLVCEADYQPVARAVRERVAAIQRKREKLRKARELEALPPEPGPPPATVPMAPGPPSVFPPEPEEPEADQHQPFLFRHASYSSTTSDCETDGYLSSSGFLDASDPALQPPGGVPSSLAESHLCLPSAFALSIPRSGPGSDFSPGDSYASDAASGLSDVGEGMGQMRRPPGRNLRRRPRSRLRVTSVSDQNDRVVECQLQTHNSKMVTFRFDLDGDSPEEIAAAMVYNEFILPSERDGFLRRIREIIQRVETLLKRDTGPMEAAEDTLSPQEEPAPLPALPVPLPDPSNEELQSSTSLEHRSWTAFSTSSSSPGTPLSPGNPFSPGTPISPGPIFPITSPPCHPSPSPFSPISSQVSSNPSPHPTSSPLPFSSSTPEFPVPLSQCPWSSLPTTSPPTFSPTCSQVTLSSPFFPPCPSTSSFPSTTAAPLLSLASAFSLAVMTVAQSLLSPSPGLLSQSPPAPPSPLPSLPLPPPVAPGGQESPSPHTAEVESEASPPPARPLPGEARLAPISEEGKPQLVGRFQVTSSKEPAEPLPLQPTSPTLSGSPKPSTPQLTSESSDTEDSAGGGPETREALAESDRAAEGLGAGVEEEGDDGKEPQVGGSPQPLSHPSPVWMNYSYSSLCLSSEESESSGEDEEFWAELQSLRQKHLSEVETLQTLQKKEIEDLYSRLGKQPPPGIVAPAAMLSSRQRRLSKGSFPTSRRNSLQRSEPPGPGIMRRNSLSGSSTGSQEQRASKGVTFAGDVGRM

[7] = target: kinases (KINOMEscan panel) (Homo sapiens, UniProt Q8NEV4); conditions: kinase MYO3A; NEW KINOMEscan
Sequence of kinases (KINOMEscan panel) (Homo sapiens, UniProt Q8NEV4) (Q8NEV4 whole entry): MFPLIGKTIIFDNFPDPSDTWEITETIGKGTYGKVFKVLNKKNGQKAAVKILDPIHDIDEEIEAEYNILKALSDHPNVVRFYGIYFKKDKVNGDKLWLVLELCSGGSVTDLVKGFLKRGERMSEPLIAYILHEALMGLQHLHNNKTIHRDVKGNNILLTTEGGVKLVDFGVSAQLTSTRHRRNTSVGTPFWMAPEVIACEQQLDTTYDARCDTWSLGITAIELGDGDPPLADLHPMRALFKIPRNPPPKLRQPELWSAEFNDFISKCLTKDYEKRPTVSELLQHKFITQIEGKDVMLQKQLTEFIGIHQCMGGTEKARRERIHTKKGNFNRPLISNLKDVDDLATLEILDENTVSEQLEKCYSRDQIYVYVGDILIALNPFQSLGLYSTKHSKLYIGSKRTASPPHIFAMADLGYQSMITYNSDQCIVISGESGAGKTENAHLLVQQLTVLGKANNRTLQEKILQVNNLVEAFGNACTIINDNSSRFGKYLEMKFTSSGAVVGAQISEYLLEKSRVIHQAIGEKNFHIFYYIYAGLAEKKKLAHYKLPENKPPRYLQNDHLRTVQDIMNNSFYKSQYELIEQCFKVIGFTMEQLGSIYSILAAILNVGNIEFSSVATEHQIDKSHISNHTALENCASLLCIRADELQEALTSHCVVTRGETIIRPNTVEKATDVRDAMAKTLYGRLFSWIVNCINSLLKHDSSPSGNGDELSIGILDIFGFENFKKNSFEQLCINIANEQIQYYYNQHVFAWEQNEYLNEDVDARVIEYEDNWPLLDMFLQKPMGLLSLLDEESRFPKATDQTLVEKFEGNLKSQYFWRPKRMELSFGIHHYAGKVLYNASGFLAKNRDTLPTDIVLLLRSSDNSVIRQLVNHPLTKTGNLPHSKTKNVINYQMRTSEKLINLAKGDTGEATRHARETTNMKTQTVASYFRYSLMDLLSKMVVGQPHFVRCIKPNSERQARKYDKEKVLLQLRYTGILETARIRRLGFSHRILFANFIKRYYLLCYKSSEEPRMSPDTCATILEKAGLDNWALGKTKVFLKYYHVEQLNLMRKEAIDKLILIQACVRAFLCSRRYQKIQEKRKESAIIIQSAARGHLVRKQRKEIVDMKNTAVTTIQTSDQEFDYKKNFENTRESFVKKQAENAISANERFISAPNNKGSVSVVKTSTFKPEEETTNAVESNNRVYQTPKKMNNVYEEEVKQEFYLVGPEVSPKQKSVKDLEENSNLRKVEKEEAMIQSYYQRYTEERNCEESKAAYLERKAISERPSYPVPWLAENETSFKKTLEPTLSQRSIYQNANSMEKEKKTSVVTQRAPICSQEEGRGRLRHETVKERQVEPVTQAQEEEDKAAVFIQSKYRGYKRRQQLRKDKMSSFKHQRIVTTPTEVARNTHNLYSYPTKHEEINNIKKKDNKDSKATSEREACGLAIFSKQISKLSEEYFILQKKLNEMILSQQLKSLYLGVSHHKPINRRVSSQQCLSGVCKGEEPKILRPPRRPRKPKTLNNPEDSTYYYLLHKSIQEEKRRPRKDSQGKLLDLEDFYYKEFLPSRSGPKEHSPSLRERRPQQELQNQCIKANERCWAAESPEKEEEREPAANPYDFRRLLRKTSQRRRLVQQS

[8] = target: kinases (KINOMEscan panel) (Homo sapiens, UniProt P36888, D835H); conditions: kinase FLT3(D835H); NEW KINOMEscan
[9] = target: T2, kinases (KINOMEscan panel) (Homo sapiens, UniProt Q9UHD2); conditions: TBK1; NEW KINOMEscan
T2 sequence (Q9UHD2 1-729): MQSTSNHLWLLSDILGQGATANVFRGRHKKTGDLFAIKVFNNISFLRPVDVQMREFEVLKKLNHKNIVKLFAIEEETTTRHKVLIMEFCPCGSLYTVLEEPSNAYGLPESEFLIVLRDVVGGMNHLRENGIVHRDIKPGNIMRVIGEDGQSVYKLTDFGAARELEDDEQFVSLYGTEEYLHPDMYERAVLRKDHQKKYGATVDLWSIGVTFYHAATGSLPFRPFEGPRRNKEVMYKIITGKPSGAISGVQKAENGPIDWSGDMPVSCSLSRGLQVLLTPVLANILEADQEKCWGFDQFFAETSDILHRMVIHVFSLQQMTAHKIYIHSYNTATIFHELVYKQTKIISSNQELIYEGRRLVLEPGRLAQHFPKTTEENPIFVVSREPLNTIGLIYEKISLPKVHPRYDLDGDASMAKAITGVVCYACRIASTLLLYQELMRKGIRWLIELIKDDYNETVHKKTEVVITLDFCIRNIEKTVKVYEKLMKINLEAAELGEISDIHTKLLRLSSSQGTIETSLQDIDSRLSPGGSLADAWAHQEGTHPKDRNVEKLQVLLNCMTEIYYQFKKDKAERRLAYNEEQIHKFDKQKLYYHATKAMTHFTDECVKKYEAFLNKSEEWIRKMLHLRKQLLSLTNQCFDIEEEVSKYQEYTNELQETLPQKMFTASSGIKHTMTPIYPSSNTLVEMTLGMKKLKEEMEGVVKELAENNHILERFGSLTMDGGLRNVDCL

[10] = target: kinases (KINOMEscan panel) (Homo sapiens, UniProt P49336); conditions: CDK8; NEW KINOMEscan
Sequence of kinases (KINOMEscan panel) (Homo sapiens, UniProt P49336) (P49336 whole entry): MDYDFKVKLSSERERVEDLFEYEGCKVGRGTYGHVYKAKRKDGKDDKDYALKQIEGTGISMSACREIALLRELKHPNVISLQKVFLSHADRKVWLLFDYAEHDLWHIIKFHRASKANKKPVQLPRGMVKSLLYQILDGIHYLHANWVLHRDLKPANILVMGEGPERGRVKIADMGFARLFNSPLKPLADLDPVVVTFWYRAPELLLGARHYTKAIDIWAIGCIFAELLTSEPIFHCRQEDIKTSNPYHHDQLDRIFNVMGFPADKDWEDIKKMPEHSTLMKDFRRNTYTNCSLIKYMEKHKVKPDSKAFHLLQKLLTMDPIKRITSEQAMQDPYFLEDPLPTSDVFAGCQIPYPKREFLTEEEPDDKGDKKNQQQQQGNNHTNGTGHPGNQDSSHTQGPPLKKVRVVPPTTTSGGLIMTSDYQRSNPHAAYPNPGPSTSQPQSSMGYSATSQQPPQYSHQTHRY

[11] = target: kinases (KINOMEscan panel) (Homo sapiens, UniProt Q9P1W9); conditions: PIM2; NEW KINOMEscan
Sequence of kinases (KINOMEscan panel) (Homo sapiens, UniProt Q9P1W9) (Q9P1W9 whole entry): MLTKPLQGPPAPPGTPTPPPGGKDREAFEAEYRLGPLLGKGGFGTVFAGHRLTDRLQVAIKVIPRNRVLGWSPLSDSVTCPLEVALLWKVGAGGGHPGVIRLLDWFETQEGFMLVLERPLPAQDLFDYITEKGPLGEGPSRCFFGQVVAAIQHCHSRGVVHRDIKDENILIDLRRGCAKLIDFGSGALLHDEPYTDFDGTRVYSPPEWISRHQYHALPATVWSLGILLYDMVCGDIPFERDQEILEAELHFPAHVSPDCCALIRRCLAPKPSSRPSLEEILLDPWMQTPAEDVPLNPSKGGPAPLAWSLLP

[12] = target: kinases (KINOMEscan panel) (Homo sapiens, UniProt P22607); conditions: FGFR3; NEW KINOMEscan
[13] = target: T3, kinases (KINOMEscan panel) (Homo sapiens, UniProt Q8IW41)
T3 sequence (Q8IW41 1-473): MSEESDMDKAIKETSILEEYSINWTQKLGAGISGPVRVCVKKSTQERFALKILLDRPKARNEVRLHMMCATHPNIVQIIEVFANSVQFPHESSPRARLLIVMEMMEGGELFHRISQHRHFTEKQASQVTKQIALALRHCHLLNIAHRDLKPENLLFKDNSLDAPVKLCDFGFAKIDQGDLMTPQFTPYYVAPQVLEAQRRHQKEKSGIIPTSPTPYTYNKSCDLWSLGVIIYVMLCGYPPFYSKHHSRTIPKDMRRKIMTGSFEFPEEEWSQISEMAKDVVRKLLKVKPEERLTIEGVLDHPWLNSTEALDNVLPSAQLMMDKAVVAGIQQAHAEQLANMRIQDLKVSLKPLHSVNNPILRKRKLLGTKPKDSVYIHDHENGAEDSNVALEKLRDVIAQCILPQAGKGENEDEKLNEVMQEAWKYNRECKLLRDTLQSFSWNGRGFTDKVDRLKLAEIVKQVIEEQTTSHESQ

[14] = target: kinases (KINOMEscan panel) (Homo sapiens, UniProt P49760); conditions: kinase CLK2; NEW KINOMEscan
Sequence of kinases (KINOMEscan panel) (Homo sapiens, UniProt P49760) (P49760 whole entry): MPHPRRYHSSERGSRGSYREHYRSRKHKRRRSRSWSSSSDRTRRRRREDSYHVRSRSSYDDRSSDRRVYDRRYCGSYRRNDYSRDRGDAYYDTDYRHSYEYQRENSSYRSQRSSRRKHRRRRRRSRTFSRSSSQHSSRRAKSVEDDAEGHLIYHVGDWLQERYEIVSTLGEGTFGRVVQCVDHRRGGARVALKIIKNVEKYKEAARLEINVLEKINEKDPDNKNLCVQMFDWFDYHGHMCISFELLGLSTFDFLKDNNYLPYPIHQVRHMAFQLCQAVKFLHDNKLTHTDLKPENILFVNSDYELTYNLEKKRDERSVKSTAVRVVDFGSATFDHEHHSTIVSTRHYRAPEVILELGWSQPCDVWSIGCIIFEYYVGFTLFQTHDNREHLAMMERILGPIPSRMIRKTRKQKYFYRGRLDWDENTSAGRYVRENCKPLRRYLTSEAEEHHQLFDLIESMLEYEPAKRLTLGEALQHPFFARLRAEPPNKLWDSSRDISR

Row | Structure (SMILES) | KINOMEscan NEK5 [1] | KINOMEscan AAK1 [2] | KINOMEscan FGFR4 [3] | KINOMEscan TLK2 [4] | KINOMEscan PAK6 [5] | KINOMEscan WNK4 [6] | KINOMEscan MYO3A [7] | KINOMEscan FLT3(D835H) [8] | KINOMEscan TBK1 [9] | KINOMEscan CDK8 [10] | KINOMEscan PIM2 [11] | KINOMEscan FGFR3 [12] | KINOMEscan MAPKAPK5 ([13]; MAPKAPK5, NEW KINOMEscan) | KINOMEscan CLK2 [14] | KINOMEscan MAPKAPK5 [13]
1 | Cc1cccc(-c2nc(Nc3ccc4nn(C)cc4c3)c3ccccc3n2)n1 [NK167] | 0 | 1 | 16 | 0 | 0 | 0 | 0 | 0 | 44 | 19 | 2 | 0 | 0 | 0 | –
2 | Cc1cccc(-c2nc(N(C)c3ccc4ncsc4c3)c3ccccc3n2)n1 [NK-161] | 0 | 5 | 19 | 0 | 0 | 0 | 0 | 4 | 25 | 12 | 18 | 1 | – | 0 | 0
